{"source": "PubChem BioAssay (NCI)", "assay_in_all_cases": "DTP human tumour cell line panel, 48 h", "key": {"SR leukemia": {"tested_on": "SR leukemia"}, "SW-620 colon": {"tested_on": "SW-620 colon"}, "DU-145 prostate": {"tested_on": "DU-145 prostate"}, "BT-549 breast": {"tested_on": "BT-549 breast"}, "ACHN renal": {"tested_on": "ACHN renal"}, "NCI-H522 lung": {"tested_on": "NCI-H522 lung"}, "SK-MEL-2 melanoma": {"tested_on": "SK-MEL-2 melanoma"}, "LOX IMVI melanoma": {"tested_on": "LOX IMVI melanoma"}, "COLO 205 colon": {"tested_on": "COLO 205 colon"}, "NCI-H460 lung": {"tested_on": "NCI-H460 lung"}, "A498 renal": {"tested_on": "A498 renal"}, "HL-60(TB) leukemia": {"tested_on": "HL-60(TB) leukemia"}, "SN12C renal": {"tested_on": "SN12C renal"}, "OVCAR-3 ovarian": {"tested_on": "OVCAR-3 ovarian"}, "IGROV1 ovarian": {"tested_on": "IGROV1 ovarian"}, "PC-3 prostate": {"tested_on": "PC-3 prostate"}, "SF-295 CNS": {"tested_on": "SF-295 CNS"}, "OVCAR-8 ovarian": {"tested_on": "OVCAR-8 ovarian"}, "EKVX NSCLC": {"tested_on": "EKVX NSCLC"}, "KM12 colon": {"tested_on": "KM12 colon"}, "SK-MEL-28 melanoma": {"tested_on": "SK-MEL-28 melanoma"}, "UO-31 renal": {"tested_on": "UO-31 renal"}, "A549 NSCLC": {"tested_on": "A549 NSCLC"}, "786-0 renal": {"tested_on": "786-0 renal"}, "HCC-2998 colon": {"tested_on": "HCC-2998 colon"}, "MALME-3M melanoma": {"tested_on": "MALME-3M melanoma"}, "NCI-H226 lung": {"tested_on": "NCI-H226 lung"}, "OVCAR-5 ovarian": {"tested_on": "OVCAR-5 ovarian"}, "SK-OV-3 ovarian": {"tested_on": "SK-OV-3 ovarian"}, "OVCAR-4 ovarian": {"tested_on": "OVCAR-4 ovarian"}}, "note": "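Five concentrations, 48 hours, 96-well plates. GI50: concentration for 50% inhibition of growth. TGI: total growth inhibition.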"}
{"smiles": "Cn1cc(-c2nnc(N)nc2-c2c[nH]c3ccccc23)c2cc(Br)cnc21", "values": [{"measurement": "GI50", "setting": "SR leukemia", "value": 1.54, "unit": "µM"}, {"measurement": "TGI", "setting": "SR leukemia", "value": 71.2, "unit": "µM"}, {"measurement": "GI50", "setting": "SW-620 colon", "value": 10, "unit": "µM"}, {"measurement": "TGI", "setting": "SW-620 colon", "value": 23.3, "unit": "µM"}, {"measurement": "GI50", "setting": "DU-145 prostate", "value": 14.5, "unit": "µM"}, {"measurement": "TGI", "setting": "DU-145 prostate", "value": 28.8, "unit": "µM"}, {"measurement": "GI50", "setting": "BT-549 breast", "value": 5.94, "unit": "µM"}, {"measurement": "TGI", "setting": "BT-549 breast", "value": 19.8, "unit": "µM"}, {"measurement": "GI50", "setting": "ACHN renal", "value": 5.41, "unit": "µM"}, {"measurement": "TGI", "setting": "ACHN renal", "value": 19.2, "unit": "µM"}, {"measurement": "GI50", "setting": "NCI-H522 lung", "value": 3.78, "unit": "µM"}, {"measurement": "TGI", "setting": "NCI-H522 lung", "value": 21.6, "unit": "µM"}, {"measurement": "GI50", "setting": "SK-MEL-2 melanoma", "value": 12.3, "unit": "µM"}, {"measurement": "TGI", "setting": "SK-MEL-2 melanoma", "value": 27.1, "unit": "µM"}, {"measurement": "GI50", "setting": "LOX IMVI melanoma", "value": 5.19, "unit": "µM"}, {"measurement": "TGI", "setting": "LOX IMVI melanoma", "value": 26.5, "unit": "µM"}, {"measurement": "GI50", "setting": "COLO 205 colon", "value": 7.03, "unit": "µM"}, {"measurement": "TGI", "setting": "COLO 205 colon", "value": 21.1, "unit": "µM"}, {"measurement": "GI50", "setting": "NCI-H460 lung", "value": 5.02, "unit": "µM"}, {"measurement": "TGI", "setting": "NCI-H460 lung", "value": 21, "unit": "µM"}, {"measurement": "GI50", "setting": "A498 renal", "value": 12.3, "unit": "µM"}, {"measurement": "TGI", "setting": "A498 renal", "value": 24.8, "unit": "µM"}, {"measurement": "GI50", "setting": "HL-60(TB) leukemia", "value": 4.63, "unit": "µM"}, {"measurement": "TGI", "setting": "HL-60(TB) leukemia", "value": 34.6, "unit": "µM"}, {"measurement": "GI50", "setting": "SN12C renal", "value": 10.2, "unit": "µM"}, {"measurement": "TGI", "setting": "SN12C renal", "value": 22.2, "unit": "µM"}, {"measurement": "GI50", "setting": "OVCAR-3 ovarian", "value": 11.1, "unit": "µM"}, {"measurement": "TGI", "setting": "OVCAR-3 ovarian", "value": 23.4, "unit": "µM"}, {"measurement": "GI50", "setting": "IGROV1 ovarian", "value": 2.6, "unit": "µM"}, {"measurement": "TGI", "setting": "IGROV1 ovarian", "value": 17.3, "unit": "µM"}, {"measurement": "GI50", "setting": "PC-3 prostate", "value": 8.26, "unit": "µM"}, {"measurement": "TGI", "setting": "PC-3 prostate", "value": "> 100", "unit": "µM"}, {"measurement": "GI50", "setting": "SF-295 CNS", "value": 4.07, "unit": "µM"}, {"measurement": "TGI", "setting": "SF-295 CNS", "value": 17.5, "unit": "µM"}, {"measurement": "GI50", "setting": "OVCAR-8 ovarian", "value": 12.5, "unit": "µM"}, {"measurement": "TGI", "setting": "OVCAR-8 ovarian", "value": 28.9, "unit": "µM"}, {"measurement": "GI50", "setting": "EKVX NSCLC", "value": 13.2, "unit": "µM"}, {"measurement": "TGI", "setting": "EKVX NSCLC", "value": 28.5, "unit": "µM"}, {"measurement": "GI50", "setting": "KM12 colon", "value": 13.1, "unit": "µM"}, {"measurement": "TGI", "setting": "KM12 colon", "value": 27.6, "unit": "µM"}, {"measurement": "GI50", "setting": "SK-MEL-28 melanoma", "value": 10.9, "unit": "µM"}, {"measurement": "TGI", "setting": "SK-MEL-28 melanoma", "value": 22.8, "unit": "µM"}, {"measurement": "TGI", "setting": "UO-31 renal", "value": 14.8, "unit": "µM"}, {"measurement": "GI50", "setting": "A549 NSCLC", "value": 12.7, "unit": "µM"}, {"measurement": "TGI", "setting": "A549 NSCLC", "value": 46.9, "unit": "µM"}, {"measurement": "GI50", "setting": "786-0 renal", "value": 9.51, "unit": "µM"}, {"measurement": "TGI", "setting": "786-0 renal", "value": 26.3, "unit": "µM"}, {"measurement": "GI50", "setting": "HCC-2998 colon", "value": 10.1, "unit": "µM"}, {"measurement": "TGI", "setting": "HCC-2998 colon", "value": 23.7, "unit": "µM"}, {"measurement": "GI50", "setting": "MALME-3M melanoma", "value": 8.27, "unit": "µM"}, {"measurement": "TGI", "setting": "MALME-3M melanoma", "value": 20.7, "unit": "µM"}, {"measurement": "GI50", "setting": "NCI-H226 lung", "value": 12.2, "unit": "µM"}, {"measurement": "TGI", "setting": "NCI-H226 lung", "value": 36.7, "unit": "µM"}, {"measurement": "GI50", "setting": "OVCAR-5 ovarian", "value": 14.6, "unit": "µM"}, {"measurement": "TGI", "setting": "OVCAR-5 ovarian", "value": 29.8, "unit": "µM"}, {"measurement": "GI50", "setting": "SK-OV-3 ovarian", "value": 16.6, "unit": "µM"}, {"measurement": "TGI", "setting": "SK-OV-3 ovarian", "value": 35.6, "unit": "µM"}, {"measurement": "GI50", "setting": "OVCAR-4 ovarian", "value": 7.09, "unit": "µM"}]}
